# According to ChEMBL document CHEMBL1147343, “Isolation and identification of an antifungal naphthopyran derivative from Rhinacanthus nasutus” (1993):
# Test system: Pyricularia oryzae
# Assay: Antifungal activity against Pyricularia oryzae assessed as inhibition of spore germination
# Type: functional
# Details: read-out: ED50 (the source's name)
smiles,measurement,value
CC1(C)COC2=C(C1)C(=O)c1ccccc1C2=O,EC50,0.4 µg/mL
